Experiment [1] deals with MRC5. Kind of experiment: Anticancer activity against human MRC5 cells assessed as cell growth inhibition measured after 24 hrs by MTT assay. The format is functional, cell-based. The settings on record: MRC5, 24 h. Background: Tetrazolium dyes change colour on reduction, which living cells bring about.
Experiment [2] relates to Trypanosoma cruzi. Kind of experiment: Antiprotozoal activity against Trypanosoma cruzi infected in mouse Peritoneal macrophage cell assessed as growth inhibition at 1.6 uM measured after 4 days relative to control. It counts as functional. The settings on record: 96 h, time 4 day.
The target in experiment [3] is Trypanothione reductase (Trypanosoma brucei brucei, UniProt P39051). The experiment in a line: Inhibition of Trypanosoma brucei TryR.
For experiment [4], the system named is Trypanosoma cruzi. Kind of experiment: Antiprotozoal activity against Trypanosoma cruzi epimastigotes. It counts as functional, organism-based. The settings on record: Trypanosoma cruzi.
For experiment [5], the target named is T1, Trypanothione reductase (Trypanosoma cruzi, UniProt P28593). Kind of experiment: Inhibition of Trypanosoma cruzi TryR assessed as inhibition constant by TR assay.
The test system of experiment [6] is Leishmania infantum. Kind of experiment: Antiprotozoal activity against Leishmania infantum MHOM/MA671TMAP263 axenic amastigotes assessed as growth inhibition measured after 5 day by MTT assay. The format is functional, organism-based. The note with it: 120 h.
In experiment [7] the test system is Leishmania infantum. Kind of experiment: Antiprotozoal activity against Leishmania infantum MHOM/MA671TMAP263 promastigote assessed as growth inhibition measured after 5 day by MTT assay. It counts as functional, organism-based. The note with it: MHOM/MA671TMAP263, 120 h.
The nature of experiment [8]: Inhibition of Trypanosoma cruzi Fe - Superoxide dismutase.
The subject of experiment [9] is Trypanosoma cruzi. Kind of experiment: Antiprotozoal activity against Trypanosoma cruzi […] infected in mouse assessed as reduction in curative effect at 15 mg/kg relative to control. The format is functional.
In experiment [10] the test system is Trypanosoma cruzi. The experiment in a line: Antiprotozoal activity against Trypanosoma cruzi […] infected in African green monkey Vero cells assessed as reduction in infection measured after 72 hrs relative to control. It counts as functional.
The test system of experiment [11] is Trypanosoma cruzi. The experiment in a line: Antiprotozoal activity against Trypanosoma cruzi […] measured after 72 hrs. The format is functional, organism-based.
The subject of experiment [12] is Leishmania donovani. The experiment in a line: Antiprotozoal activity against Leishmania donovani promastigote at 10 uM relative to control. The format is functional.
Experiment [13] deals with Leishmania donovani. The experiment in a line: Antiprotozoal activity against Leishmania donovani MHOM/PE/84/LC26 amastigotes infected in mouse J774.2 cells measured after 72 hrs. The note with it: J774.2, 72 h. It counts as functional, organism-based.
Experiment [14] deals with Leishmania infantum. The experiment in a line: Antiprotozoal activity against Leishmania infantum MCAN/ES/2001/UCM-10 amastigotes infected in mouse J774.2 cells measured after 72 hrs. It counts as functional, organism-based. The settings on record: J774.2, 72 h.
The subject of experiment [15] is HepG2. The experiment in a line: Anticancer activity against human HepG2 cells assessed as cell growth inhibition measured after 72 hrs by MTT assay. It counts as functional, cell-based. The settings on record: HepG2, 72 h.
For experiment [16], the system named is Leishmania donovani. Kind of experiment: Antiprotozoal activity against Leishmania donovani MHOM/IN/00/DEV strain promastigotes assessed as growth inhibition measured after 72 hrs by MTT assay. The format is functional, organism-based.
Experiment [17] deals with Trypanosoma cruzi. The experiment in a line: Antiprotozoal activity against Trypanosoma cruzi infected in Rhesus monkey LLC-MK2 cells. The format is functional, organism-based.
The subject of experiment [18] is Trypanosoma cruzi. Kind of experiment: Antiprotozoal activity against Trypanosoma cruzi infected in human Red blood cell. It counts as functional, organism-based. The settings on record: Erythrocyte.
The subject of experiment [19] is Leishmania mexicana. The experiment in a line: Antiprotozoal activity against Leishmania mexicana infected in mouse J774 cells. It counts as functional, organism-based.
In experiment [20] the target is T1, Trypanothione reductase. The experiment in a line: Inhibition of Trypanosoma cruzi TryR expressed in escherichia coli SG5.
Experiment [21] relates to Leishmania braziliensis. Kind of experiment: Antiprotozoal activity against Leishmania braziliensis promastigotes. The format is functional, organism-based.
Experiment [22] relates to Leishmania braziliensis. The experiment in a line: Antiprotozoal activity against Leishmania braziliensis amastigotes. It counts as functional, organism-based.
Experiment [23] has as its system Leishmania chagasi. The experiment in a line: Antiprotozoal activity against Leishmania chagasi amastigotes. The format is functional, organism-based.
In experiment [24] the test system is Trypanosoma cruzi. The experiment in a line: Antiprotozoal activity against Trypanosoma cruzi amastigotes. It counts as functional, organism-based.
Experiment [25] relates to HepG2. Kind of experiment: Anticancer activity against human HepG2 cells assessed as cell growth inhibition. The format is functional, cell-based.
The test system of experiment [26] is Trypanosoma brucei. The experiment in a line: Antiprotozoal activity against Trypanosoma […] STIB900 strain. It counts as functional, organism-based.
A short description of experiment [27]: Inhibition of Fulllength Trypanosoma brucei MetRS expressed in Escherichia coli in presence of ATP.
A short description of experiment [28]: Anticancer activity against human CRL-8155 cells assessed as cell growth inhibition. It counts as functional, cell-based. The note with it: CRL8155.
The species named for experiment [29] is Homo sapiens. Kind of experiment: Inhibition of Superoxide dismutase (unknown origin) at 100 uM measured after 24 hrs relative to control.
The target in experiment [30] is Trypanothione reductase (Crithidia fasciculata, UniProt P39040). Kind of experiment: Inhibition of Crithidia fasciculata TryR overexpressed in escherichia coli assessed as inhibition constant.
The test system of experiment [31] is Trypanosoma cruzi. The experiment in a line: Antiprotozoal activity against Trypanosoma cruzi […] strain infected in mouse macrophage cell measured after 3 days. The note with it: 72 h. The format is functional, organism-based.
Experiment [32] relates to Trypanosoma cruzi. The experiment in a line: Antiprotozoal activity against Trypanosoma cruzi MHOM/BR/OO/Y strain infected in mouse macrophage cell measured after 3 days. It counts as functional, organism-based. The settings on record: 72 h.
Experiment [33] concerns Leishmania donovani. Kind of experiment: Antiprotozoal activity against Leishmania donovani MHOM/ET/67/L82 strain infected in mouse macrophage cell measured after 5 days. It counts as functional, organism-based. The note with it: MHOM/ET/67/L82, Macrophage, 120 h.
Experiment [34] deals with Leishmania donovani. The experiment in a line: Leishmanicidal activity against Leishmania donovani MHOM/PE/84/LC26. The format is functional, organism-based.
Experiment [35] concerns Leishmania infantum. Kind of experiment: Leishmanicidal activity against Leishmania infantum MCAN/ES/2001/UCM-10. It counts as functional, organism-based.
The test system of experiment [36] is Leishmania braziliensis. The experiment in a line: Leishmanicidal activity against Leishmania braziliensis MHOM/BR/1975/M2904. It counts as functional, organism-based.
The subject of experiment [37] is Syrian golden hamster. Kind of experiment: In vivo antiprotozoal activity against Leishmania donovani amastigotes in hamster spleen assessed as reduction of amastigotes count measured after 7 days relative to control. The format is functional, Mesocricetus auratus. The settings on record: time 7 day.
In experiment [38] the test system is Trypanosoma brucei. The experiment in a line: Antitrypanosomal activity against bloodstream Trypanosoma brucei assessed as parasite growth inhibition. The format is functional, organism-based.

A value given as a limit tells only on which side of the number the result lay.

T1 sequence (P28593 whole entry): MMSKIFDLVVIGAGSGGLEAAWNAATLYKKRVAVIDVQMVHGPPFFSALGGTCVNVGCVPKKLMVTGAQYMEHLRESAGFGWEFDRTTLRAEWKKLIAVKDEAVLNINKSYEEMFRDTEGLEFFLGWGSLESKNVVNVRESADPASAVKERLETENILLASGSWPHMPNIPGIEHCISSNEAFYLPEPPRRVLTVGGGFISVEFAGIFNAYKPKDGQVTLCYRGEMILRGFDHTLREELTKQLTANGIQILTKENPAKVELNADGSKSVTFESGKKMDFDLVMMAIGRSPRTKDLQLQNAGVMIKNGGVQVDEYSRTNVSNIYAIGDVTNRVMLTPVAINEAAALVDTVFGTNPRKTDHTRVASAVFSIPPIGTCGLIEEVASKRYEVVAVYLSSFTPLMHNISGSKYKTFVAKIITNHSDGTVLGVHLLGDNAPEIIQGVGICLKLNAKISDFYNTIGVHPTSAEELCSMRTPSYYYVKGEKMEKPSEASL
Sequence of Trypanothione reductase (Trypanosoma brucei brucei, UniProt P39051) (P39051 whole entry): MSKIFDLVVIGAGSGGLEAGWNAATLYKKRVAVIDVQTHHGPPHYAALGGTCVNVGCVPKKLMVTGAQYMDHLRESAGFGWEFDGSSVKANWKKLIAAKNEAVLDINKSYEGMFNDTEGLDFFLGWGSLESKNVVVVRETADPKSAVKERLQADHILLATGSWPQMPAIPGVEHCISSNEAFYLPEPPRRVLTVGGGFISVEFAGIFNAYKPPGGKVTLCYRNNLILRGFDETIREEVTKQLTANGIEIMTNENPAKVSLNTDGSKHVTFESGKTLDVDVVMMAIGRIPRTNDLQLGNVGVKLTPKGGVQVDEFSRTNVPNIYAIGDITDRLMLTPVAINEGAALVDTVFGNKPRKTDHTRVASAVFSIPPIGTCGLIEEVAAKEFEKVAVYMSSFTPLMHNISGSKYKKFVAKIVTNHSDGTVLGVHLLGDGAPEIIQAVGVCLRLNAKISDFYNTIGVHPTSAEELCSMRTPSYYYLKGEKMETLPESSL
Sequence of Trypanothione reductase (Crithidia fasciculata, UniProt P39040) (P39040 whole entry): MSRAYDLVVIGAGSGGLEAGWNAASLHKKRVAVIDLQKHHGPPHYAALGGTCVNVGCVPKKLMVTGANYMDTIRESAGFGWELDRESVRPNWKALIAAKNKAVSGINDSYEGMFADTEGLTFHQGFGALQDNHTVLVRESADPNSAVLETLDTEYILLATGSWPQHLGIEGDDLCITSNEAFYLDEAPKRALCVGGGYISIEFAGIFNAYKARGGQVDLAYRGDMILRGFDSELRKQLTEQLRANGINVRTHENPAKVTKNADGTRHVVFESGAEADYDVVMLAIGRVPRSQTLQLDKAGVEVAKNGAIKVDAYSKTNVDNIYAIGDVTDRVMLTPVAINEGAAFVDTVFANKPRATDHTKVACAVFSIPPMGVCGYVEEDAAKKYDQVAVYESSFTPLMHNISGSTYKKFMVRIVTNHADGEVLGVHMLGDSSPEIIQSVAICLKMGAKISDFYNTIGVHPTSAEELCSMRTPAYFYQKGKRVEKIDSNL

In general, IC50 refers to the concentration that inhibits the measured activity by half. The term inhibition denotes the percentage by which the read-out fell short of the control. Regarding `Clc1ccc(CNCCCN2CCN(CCCNCc3ccc(Cl)cc3)CC2)cc1`, the IC50 in experiment [1] worked out at 4.5 µM. Also, the inhibition at 1.6 µM in experiment [2] was determined as 95%.

For the compound `CN1CCN(CCCN2c3ccccc3Sc3ccc(Cl)cc32)CC1` [PROCHLORPERAZINE], the IC50 in experiment [3] is 7.5 µM.

In general, Ki refers to a measure of affinity in units of concentration, obtained from inhibition or displacement. In [4], `Clc1ccc(Sc2ccccc2)c(NCCN2CCCC2)c1` returned an IC50 of 10 µM. The Ki in experiment [5] is 86 µM.

As for `O=C1c2cccc3cccc(c23)C(=O)N1CCCNCCCNCCCCNCCCNCCCN1C(=O)c2cccc3cccc(c23)C1=O`, the IC50 came to 12.3 µM in experiment [6] and 7.56 µM in experiment [7].

A word on the inhibition in vivo: it is the share of the control response that was lost under treatment. On to `c1ccc(CN2CCN(Cc3ccccn3)CCN(Cc3ccccn3)CC2)nc1`, for which the results for the IC50 in experiment [8] and in experiment [11] were 18 µM and 7 µM, respectively. Moreover, in [9], the inhibition in vivo at 15 mg/kg was 33%. The “inhibition (INH)” value in experiment [10] came to 81%.

Turning to `COc1ccc2nc3cc(Cl)ccc3c(NCCCCCCCCNc3c4ccc(Cl)cc4nc4ccc(OC)nc34)c2c1`, the inhibition at 10 µM in [12] stood at 42%.

Regarding `CN1CCCNc2c(c(=O)c2=O)NCCCN(C)CCCNc2c(c(=O)c2=O)NCCC1`, the 50% inhibitory concentration (IC50) in experiment [13] and in [14] was 20 µM each time.

Take `c1ccc2c(c1)cc1c(-c3ccc(CNCCCN4CCN(CCCNCc5ccc(-c6nc7ccccc7n7c6cc6ccccc67)cc5)CC4)cc3)nc3ccccc3n12`: the IC50 was found to be 1.56 µM in [15] and 0.57 µM in [16].

With `CC(C)=CCC/C(C)=C/CNCCNC1C2CC3CC(C2)CC1C3` (stereo not given) [SQ109], the IC50 in [17] stood at 0.5 µM; in experiment [18], 80 µM; in [19] it was 0.01 µM.

The compound `NCCCCN(CCCN)CCCNc1cc(Cl)ccc1Sc1ccccc1` came in with a 50% inhibitory concentration (IC50) in [20] of 1 µM.

For `CCCCCCCCCCNCCCCCCN`, the IC50 in [4], in experiment [21], in experiment [22], in experiment [23] and in experiment [24] was 10 µM each time.

In the case of `O=C(NCCCNCc1cc(Cl)cc(Cl)c1)Nc1ccsc1`, the IC50 was 13 µM in experiment [25], 0.2 µM in experiment [26], 0.028 µM in experiment [27] and 0.2 µM in experiment [28].

`O=C(NCCCCCCNC(=O)c1cccc(O)c1O)c1cccc(O)c1O` yielded an inhibition in experiment [29] of 80%.

On to `NCCCNCCCCNCCCNC(=O)CCc1ccc(O)c(O)c1`, for which, in experiment [30], the Ki was 85 µM.

Consider `CC1=C(CCCCCC(=O)NCCCCNCCCNC(=O)CCCCCC2=C(C)C(=O)c3ccccc3C2=O)C(=O)c2ccccc2C1=O`, for which the 50% inhibitory concentration (IC50) in experiment [31], in [32] and in [33] was under 5 µM each time.

Turning to `CN(CCCNc1c(NCCC[N+](C)(C)C)c(=O)c1=O)CCCNc1c(NCCC[N+](C)(C)C)c(=O)c1=O`, the IC50 in [34], in experiment [35] and in experiment [36] was over 15 µM each time.

For `COC(=O)/N=C(\NCCCN1CCOCC1)NC(=O)OC`, the “inhibition (INH)” value in experiment [37] stood at 80%.

`CN(C)CCNc1cc(Cl)ccc1Sc1ccccc1`: in experiment [5], the Ki was determined as 90 µM.

Take `Nc1nc(N)nc(NCCCNCCCCCCCNCCCNCCCNc2nc(N)nc(N)n2)n1`: the IC50 in experiment [38] was 24 µM.

(Values after ChEMBL document CHEMBL5260817, “Polyamine-based analogs and conjugates as antikinetoplastid agents” (Eur J Med Chem, 2017).)
